Patent publication US10670605B2, “Cysteine reactive probes and uses thereof” (The Scripps Research Institute, priority 2015, dated 2020)
Each block holds one molecule with its values, some of them ahead of it.

How the values were obtained:
Assay in all cases: Competitive isoTOP-ABPP in situ (fragment-treated cells)
Type in all cases: cell-based
[1] = biological target: cysteines in MDA-MB-231 and Ramos cells (Homo sapiens, UniProt Q8NDH3)
[2] = biological target: T1, cysteines in MDA-MB-231 and Ramos cells (Homo sapiens, UniProt Q01433)
T1 sequence (Q01433 1-825): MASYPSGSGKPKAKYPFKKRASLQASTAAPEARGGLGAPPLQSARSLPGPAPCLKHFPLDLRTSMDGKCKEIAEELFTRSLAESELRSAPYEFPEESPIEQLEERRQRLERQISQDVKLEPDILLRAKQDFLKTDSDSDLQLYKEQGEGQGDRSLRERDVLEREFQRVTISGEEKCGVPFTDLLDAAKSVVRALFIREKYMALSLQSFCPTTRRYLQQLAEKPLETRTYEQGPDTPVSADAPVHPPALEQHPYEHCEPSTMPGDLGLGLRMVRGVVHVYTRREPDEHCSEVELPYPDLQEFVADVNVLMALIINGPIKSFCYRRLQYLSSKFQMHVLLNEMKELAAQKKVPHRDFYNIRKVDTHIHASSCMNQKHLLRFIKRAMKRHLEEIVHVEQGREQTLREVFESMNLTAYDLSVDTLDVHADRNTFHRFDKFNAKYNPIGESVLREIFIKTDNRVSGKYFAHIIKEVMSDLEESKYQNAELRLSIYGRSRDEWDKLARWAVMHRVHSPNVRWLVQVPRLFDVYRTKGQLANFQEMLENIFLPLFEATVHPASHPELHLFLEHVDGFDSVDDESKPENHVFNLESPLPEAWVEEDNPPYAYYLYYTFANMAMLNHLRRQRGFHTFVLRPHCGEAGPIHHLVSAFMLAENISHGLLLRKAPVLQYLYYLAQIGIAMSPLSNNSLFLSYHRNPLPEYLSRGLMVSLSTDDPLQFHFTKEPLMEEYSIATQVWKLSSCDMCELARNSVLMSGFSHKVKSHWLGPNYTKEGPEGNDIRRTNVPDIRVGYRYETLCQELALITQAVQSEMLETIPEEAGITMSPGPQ

[3] = biological target: cysteines in MDA-MB-231 and Ramos cells (Homo sapiens, UniProt Q8WWI1)
[4] = biological target: cysteines in MDA-MB-231 and Ramos cells (Homo sapiens, UniProt Q15149)
Chain of cysteines in MDA-MB-231 and Ramos cells (Homo sapiens, UniProt Q15149) (Q15149 whole entry): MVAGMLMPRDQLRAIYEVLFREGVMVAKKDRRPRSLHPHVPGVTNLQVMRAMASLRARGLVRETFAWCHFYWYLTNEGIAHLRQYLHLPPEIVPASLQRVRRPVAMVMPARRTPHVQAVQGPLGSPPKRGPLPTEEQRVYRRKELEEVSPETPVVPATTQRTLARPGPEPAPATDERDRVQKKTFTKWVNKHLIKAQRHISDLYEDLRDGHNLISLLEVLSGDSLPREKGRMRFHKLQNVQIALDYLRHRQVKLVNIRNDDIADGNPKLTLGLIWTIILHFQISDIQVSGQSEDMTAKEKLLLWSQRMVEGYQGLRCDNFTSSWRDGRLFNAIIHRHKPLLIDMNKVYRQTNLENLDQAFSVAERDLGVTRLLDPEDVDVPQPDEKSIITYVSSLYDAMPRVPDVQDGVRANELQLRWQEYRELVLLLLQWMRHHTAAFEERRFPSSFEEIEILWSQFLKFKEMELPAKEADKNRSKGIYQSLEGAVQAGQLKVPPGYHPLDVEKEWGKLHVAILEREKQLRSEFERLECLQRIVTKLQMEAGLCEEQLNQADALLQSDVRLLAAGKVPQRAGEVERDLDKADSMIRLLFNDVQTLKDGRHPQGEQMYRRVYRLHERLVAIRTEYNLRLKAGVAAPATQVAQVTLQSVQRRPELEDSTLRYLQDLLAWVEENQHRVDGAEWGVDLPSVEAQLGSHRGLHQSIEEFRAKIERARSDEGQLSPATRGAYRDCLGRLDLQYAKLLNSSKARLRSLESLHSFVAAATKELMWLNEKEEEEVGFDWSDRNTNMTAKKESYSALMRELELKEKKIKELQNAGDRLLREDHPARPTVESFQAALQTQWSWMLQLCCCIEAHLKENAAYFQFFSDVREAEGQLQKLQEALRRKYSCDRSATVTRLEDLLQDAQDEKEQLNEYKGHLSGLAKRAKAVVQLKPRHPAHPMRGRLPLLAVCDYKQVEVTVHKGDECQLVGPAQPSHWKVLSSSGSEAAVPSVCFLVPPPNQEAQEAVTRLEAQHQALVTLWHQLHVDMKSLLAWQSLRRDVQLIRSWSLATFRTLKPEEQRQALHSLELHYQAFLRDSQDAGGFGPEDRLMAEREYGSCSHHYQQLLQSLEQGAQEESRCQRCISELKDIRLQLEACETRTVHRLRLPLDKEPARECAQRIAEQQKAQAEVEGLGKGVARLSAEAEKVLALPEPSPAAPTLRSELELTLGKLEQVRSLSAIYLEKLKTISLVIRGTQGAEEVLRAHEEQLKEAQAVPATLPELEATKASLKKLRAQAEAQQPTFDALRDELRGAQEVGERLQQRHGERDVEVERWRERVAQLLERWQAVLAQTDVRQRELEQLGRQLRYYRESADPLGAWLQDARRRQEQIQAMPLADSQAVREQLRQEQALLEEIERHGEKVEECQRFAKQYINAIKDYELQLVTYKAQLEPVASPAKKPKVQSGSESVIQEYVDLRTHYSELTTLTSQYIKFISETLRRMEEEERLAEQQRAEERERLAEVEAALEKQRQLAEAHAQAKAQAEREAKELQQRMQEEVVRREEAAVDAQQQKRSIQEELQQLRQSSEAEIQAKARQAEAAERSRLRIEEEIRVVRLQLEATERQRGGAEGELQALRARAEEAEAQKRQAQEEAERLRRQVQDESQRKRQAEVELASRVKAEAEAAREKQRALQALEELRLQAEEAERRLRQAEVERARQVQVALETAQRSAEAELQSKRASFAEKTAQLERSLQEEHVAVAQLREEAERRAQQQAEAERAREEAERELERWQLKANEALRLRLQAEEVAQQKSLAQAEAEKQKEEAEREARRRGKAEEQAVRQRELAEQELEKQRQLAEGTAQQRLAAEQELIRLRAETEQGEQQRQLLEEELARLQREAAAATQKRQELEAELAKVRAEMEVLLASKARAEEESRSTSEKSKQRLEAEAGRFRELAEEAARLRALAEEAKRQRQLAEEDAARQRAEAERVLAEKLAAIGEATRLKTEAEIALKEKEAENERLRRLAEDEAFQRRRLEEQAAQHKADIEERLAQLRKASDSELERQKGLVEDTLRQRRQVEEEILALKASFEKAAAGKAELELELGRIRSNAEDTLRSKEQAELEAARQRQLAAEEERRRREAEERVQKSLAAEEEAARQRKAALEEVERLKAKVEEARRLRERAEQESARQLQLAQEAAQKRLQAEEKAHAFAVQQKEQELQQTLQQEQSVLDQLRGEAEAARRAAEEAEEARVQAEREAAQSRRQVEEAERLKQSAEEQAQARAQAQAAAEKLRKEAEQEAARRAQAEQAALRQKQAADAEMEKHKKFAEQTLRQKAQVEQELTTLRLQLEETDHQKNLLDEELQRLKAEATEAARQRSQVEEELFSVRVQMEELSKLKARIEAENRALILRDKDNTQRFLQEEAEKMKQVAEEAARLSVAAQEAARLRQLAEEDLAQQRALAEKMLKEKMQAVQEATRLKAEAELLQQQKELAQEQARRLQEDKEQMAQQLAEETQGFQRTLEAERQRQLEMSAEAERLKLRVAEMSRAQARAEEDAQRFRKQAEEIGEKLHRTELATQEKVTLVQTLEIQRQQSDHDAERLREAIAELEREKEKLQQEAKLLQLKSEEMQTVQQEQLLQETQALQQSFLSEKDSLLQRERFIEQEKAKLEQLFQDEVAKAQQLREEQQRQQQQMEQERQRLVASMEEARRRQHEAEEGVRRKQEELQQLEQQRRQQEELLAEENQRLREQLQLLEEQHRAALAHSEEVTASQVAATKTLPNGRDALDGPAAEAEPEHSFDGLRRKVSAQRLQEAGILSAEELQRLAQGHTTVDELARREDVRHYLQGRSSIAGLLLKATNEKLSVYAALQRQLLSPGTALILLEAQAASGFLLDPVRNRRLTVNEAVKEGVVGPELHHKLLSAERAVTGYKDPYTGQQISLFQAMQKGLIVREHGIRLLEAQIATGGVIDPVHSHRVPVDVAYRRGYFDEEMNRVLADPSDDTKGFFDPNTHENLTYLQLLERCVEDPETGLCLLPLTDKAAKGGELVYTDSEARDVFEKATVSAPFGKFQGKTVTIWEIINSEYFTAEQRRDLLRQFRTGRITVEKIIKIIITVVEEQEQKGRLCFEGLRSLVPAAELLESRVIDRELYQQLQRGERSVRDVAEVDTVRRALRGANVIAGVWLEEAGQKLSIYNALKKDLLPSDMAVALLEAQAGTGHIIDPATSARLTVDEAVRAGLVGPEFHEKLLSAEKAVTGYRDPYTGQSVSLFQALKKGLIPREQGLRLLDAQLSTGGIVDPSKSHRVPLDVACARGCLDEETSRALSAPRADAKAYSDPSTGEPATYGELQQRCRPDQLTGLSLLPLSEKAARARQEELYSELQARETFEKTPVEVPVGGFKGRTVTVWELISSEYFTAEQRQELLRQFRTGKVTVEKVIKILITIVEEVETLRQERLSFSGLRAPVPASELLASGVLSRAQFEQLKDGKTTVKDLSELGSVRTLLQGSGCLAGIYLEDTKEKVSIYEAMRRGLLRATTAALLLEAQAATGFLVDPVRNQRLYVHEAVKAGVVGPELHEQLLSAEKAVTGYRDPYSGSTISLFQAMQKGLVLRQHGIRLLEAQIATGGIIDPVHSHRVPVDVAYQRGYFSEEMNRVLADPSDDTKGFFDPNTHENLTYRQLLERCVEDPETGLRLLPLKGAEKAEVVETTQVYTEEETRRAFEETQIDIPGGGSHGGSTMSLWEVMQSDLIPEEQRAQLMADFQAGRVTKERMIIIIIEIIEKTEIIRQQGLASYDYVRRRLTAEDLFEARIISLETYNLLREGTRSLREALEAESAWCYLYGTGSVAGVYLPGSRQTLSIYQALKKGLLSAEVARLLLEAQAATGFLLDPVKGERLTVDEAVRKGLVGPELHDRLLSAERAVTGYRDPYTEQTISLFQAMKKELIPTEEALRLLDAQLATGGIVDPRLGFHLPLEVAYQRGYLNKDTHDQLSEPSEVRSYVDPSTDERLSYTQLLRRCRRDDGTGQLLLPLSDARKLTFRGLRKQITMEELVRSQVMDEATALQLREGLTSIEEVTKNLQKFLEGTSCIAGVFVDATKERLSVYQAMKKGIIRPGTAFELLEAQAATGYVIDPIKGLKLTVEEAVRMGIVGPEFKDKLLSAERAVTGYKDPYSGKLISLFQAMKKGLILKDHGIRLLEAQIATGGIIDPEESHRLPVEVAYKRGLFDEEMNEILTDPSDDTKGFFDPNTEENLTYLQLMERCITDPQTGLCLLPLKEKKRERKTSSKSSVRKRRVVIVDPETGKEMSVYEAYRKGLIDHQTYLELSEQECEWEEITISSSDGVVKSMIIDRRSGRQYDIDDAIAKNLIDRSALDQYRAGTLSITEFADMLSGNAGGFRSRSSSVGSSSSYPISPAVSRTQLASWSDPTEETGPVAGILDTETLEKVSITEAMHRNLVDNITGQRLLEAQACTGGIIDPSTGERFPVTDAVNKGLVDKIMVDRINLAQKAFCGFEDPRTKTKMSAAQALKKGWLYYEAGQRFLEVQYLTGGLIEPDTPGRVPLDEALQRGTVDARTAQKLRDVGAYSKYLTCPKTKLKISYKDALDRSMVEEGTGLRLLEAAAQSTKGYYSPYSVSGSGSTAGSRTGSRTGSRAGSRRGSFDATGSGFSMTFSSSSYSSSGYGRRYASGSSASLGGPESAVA

[5] = biological target: T2, cysteines in MDA-MB-231 and Ramos cells (Homo sapiens, UniProt Q96C19)
T2 sequence (Q96C19 1-240): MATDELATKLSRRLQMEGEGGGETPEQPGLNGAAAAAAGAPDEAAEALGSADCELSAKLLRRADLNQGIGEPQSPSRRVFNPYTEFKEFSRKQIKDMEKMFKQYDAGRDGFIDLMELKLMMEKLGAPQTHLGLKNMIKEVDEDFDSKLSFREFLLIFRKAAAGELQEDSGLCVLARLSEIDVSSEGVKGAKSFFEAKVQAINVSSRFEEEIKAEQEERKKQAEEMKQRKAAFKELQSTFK

[6] = biological target: T3, cysteines in MDA-MB-231 and Ramos cells (Homo sapiens, UniProt Q15345)
T3 sequence (Q15345 1-812): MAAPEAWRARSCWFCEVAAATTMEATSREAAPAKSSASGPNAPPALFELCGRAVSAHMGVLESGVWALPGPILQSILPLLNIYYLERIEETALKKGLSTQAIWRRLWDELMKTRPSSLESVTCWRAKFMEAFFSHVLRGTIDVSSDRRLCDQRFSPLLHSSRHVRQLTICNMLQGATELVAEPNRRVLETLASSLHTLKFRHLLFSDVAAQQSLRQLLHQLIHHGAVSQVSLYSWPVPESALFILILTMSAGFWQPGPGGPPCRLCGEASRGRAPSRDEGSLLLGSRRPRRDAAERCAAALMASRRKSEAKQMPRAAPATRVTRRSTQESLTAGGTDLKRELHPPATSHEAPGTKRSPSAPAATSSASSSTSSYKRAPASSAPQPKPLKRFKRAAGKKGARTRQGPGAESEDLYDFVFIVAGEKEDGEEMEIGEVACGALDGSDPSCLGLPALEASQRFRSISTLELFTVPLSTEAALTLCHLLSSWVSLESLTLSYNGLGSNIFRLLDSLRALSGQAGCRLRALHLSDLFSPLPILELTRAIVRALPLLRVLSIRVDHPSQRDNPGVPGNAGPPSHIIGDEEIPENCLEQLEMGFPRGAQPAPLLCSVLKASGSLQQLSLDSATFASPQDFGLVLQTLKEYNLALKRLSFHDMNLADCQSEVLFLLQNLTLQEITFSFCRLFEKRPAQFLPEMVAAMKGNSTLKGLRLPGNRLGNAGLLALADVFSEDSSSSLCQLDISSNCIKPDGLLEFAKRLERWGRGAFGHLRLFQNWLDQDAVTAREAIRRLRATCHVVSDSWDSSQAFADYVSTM

Chain of cysteines in MDA-MB-231 and Ramos cells (Homo sapiens, UniProt Q8NDH3) (Q8NDH3 whole entry): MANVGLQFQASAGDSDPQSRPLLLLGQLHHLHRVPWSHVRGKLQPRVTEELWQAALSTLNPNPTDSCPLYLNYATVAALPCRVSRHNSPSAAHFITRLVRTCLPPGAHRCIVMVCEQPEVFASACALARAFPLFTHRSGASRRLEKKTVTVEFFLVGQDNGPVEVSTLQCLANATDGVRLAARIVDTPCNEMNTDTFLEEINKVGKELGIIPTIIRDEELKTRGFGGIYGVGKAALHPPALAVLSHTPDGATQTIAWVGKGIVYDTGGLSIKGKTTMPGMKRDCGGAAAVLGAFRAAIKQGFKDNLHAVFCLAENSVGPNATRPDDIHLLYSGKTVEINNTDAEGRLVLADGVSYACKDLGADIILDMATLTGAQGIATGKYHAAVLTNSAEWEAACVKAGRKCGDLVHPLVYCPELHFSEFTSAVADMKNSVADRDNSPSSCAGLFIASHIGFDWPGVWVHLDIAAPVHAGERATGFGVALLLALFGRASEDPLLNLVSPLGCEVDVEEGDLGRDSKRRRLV

SMILES: COc1ccc2c(c1)CCCN2C(=O)CCl [compound 2]
isoTOP-ABPP reactivity Q8NDH3_C81 NPEPL1 ([1]; 200 μM, insitu, 231): 20.0
isoTOP-ABPP reactivity Q01433_C107 AMPD2 ([2]; 200 μM, insitu, 231): 4.4

SMILES: CC(C)CCOCCNC(=O)CCl [compound 27]
isoTOP-ABPP ratio Q8WWI1_C228 ([3]; 200 μM, insitu, 231): 0.8
isoTOP-ABPP ratio Q15149_C4574 ([4]; 200 μM, insitu, 231): 1.3
isoTOP-ABPP ratio Q01433_C107 ([2]; 200 μM, insitu, 231): 0.4

SMILES: O=C(CCl)NC(=O)NC12CC3CC(CC(C3)C1)C2 [compound 12]
isoTOP-ABPP ratio Q8WWI1_C228 ([3]; 200 μM, insitu, 231): 20.0
isoTOP-ABPP ratio Q96C19_C172 ([5]; 200 μM, insitu, 231): 0.9
isoTOP-ABPP ratio, cysteine Q8NDH3_C81 ([1]; 200 μM, insitu, 231): 20.0

SMILES: O=C(CCl)NC12CC3CC(CC(C3)C1)C2 [compound 21]
isoTOP-ABPP ratio, cysteine Q15345_C297 ([6]; 200 μM, insitu, 231): 1.1
isoTOP-ABPP ratio Q8WWI1_C228 ([3]; 200 μM, insitu, 231): 1.1
isoTOP-ABPP ratio, cysteine Q15149_C4574 ([4]; 200 μM, insitu, 231): 1.0
isoTOP-ABPP ratio, cysteine Q8NDH3_C81 ([1]; 200 μM, insitu, 231): 1.6

SMILES: O=C(CCl)N1CCN(S(=O)(=O)c2ccccc2F)CC1 [compound 10]
isoTOP-ABPP ratio Q8WWI1_C228 ([3]; 200 μM, insitu, 231): 17.2
isoTOP-ABPP ratio, cysteine Q15149_C4574 ([4]; 200 μM, insitu, 231): 2.2
isoTOP-ABPP ratio Q96C19_C172 ([5]; 200 μM, insitu, 231): 2.4
isoTOP-ABPP ratio, cysteine Q8NDH3_C81 ([1]; 200 μM, insitu, 231): 5.7

SMILES: Cn1cc(S(=O)(=O)N2CCOCC2)cc1C(=O)NC(=O)CCl [compound 11]
isoTOP-ABPP ratio, cysteine Q15345_C297 ([6]; 100 μM in situ 231): 1.1
isoTOP-ABPP ratio Q8WWI1_C228 ([3]; 100 μM in situ 231): 1.3
isoTOP-ABPP ratio, cysteine Q15149_C4574 ([4]; 100 μM in situ 231): 1.1
isoTOP-ABPP ratio Q96C19_C172 ([5]; 100 μM in situ 231): 0.9
isoTOP-ABPP ratio, cysteine Q01433_C107 ([2]; 100 μM in situ 231): 0.6

SMILES: COc1cc2c(cc1OC)CN(C(=O)CCl)CC2 [compound 8]
isoTOP-ABPP reactivity Q8NDH3_C81 NPEPL1 ([1]; 200 μM, insitu, 231): 20.0
isoTOP-ABPP reactivity Q01433_C107 AMPD2 ([2]; 200 μM, insitu, 231): 6.2

SMILES: O=C(CCl)NCCc1c[nH]c2ccccc12 [compound 13]
isoTOP-ABPP ratio, cysteine Q15345_C297 ([6]; 200 μM, insitu, 231): 1.6
isoTOP-ABPP ratio Q8WWI1_C228 ([3]; 200 μM, insitu, 231): 2.0
isoTOP-ABPP ratio Q8WWI1_C228 ([3]; 200 μM, insitu, ramos): 1.0
isoTOP-ABPP ratio, cysteine Q15149_C4574 ([4]; 200 μM, insitu, 231): 1.4
isoTOP-ABPP ratio Q96C19_C172 ([5]; 200 μM, insitu, 231): 0.7

SMILES: O=C(CCl)N1CCC(Cc2ccccc2)CC1 [compound 9]
isoTOP-ABPP reactivity Q15149_C4574 PLEC ([4]; 200 μM, insitu, 231): 0.8
isoTOP-ABPP reactivity Q96C19_C172 EFHD2 ([5]; 200 μM, insitu, 231): 2.8
isoTOP-ABPP reactivity Q01433_C107 AMPD2 ([2]; 200 μM, insitu, 231): 3.1

SMILES: COc1ccc(C2CC(c3cccs3)=NN2C(=O)CCl)cc1 (stereo not drawn) [compound 4]
isoTOP-ABPP reactivity Q15149_C4574 PLEC ([4]; 100 μM in situ 231): 4.2
isoTOP-ABPP reactivity Q96C19_C172 EFHD2 ([5]; 100 μM in situ 231): 5.3
isoTOP-ABPP reactivity Q8NDH3_C81 NPEPL1 ([1]; 100 μM in situ 231): 20.0
isoTOP-ABPP reactivity Q01433_C107 AMPD2 ([2]; 100 μM in situ 231): 2.3

SMILES: O=C(CCl)N1CCN(CC(=O)N2CCOCC2)CC1 [compound 29]
isoTOP-ABPP ratio Q8WWI1_C228 ([3]; 200 μM, insitu, ramos): 1.0
isoTOP-ABPP ratio Q96C19_C172 ([5]; 200 μM, insitu, ramos): 1.2

Second part, the molecule after the results:

isoTOP-ABPP ratio Q15345_C297 ([6]; 200 μM, insitu, 231): 0.8
isoTOP-ABPP ratio Q8WWI1_C228 ([3]; 200 μM, insitu, 231): 0.8
isoTOP-ABPP ratio Q15149_C4574 ([4]; 200 μM, insitu, 231): 0.9
isoTOP-ABPP ratio Q96C19_C172 ([5]; 200 μM, insitu, 231): 0.5
isoTOP-ABPP ratio Q01433_C107 ([2]; 200 μM, insitu, 231): 0.5
SMILES: Cc1ccc(C=C(C#N)C(=O)NCCN2CCOCC2)cc1 [compound 41]

isoTOP-ABPP ratio Q8WWI1_C228 ([3]; 200 μM, insitu, 231): 20.0
SMILES: CC1CCc2ccccc2N1C(=O)CCl (stereo not drawn) [compound 45]

isoTOP-ABPP ratio Q96C19_C172 ([5]; 200 μM, insitu, 231): 1.2
SMILES: O=C(CCl)Nc1cccc2ncccc12 [compound 51]

isoTOP-ABPP ratio Q15345_C297 ([6]; 200 μM, insitu, 231): 1.4
isoTOP-ABPP ratio Q96C19_C172 ([5]; 200 μM, insitu, 231): 0.7
isoTOP-ABPP ratio Q8NDH3_C81 ([1]; 200 μM, insitu, 231): 2.0
SMILES: C=CC(=O)Nc1cc(F)c(N2CCN(C(=O)OC(C)(C)C)CC2)c(F)c1 [compound 38]

isoTOP-ABPP ratio Q15345_C297 ([6]; 200 μM, insitu, 231): 0.9
isoTOP-ABPP ratio Q96C19_C172 ([5]; 200 μM, insitu, 231): 1.6
isoTOP-ABPP ratio Q8NDH3_C81 ([1]; 200 μM, insitu, 231): 1.0
isoTOP-ABPP ratio Q01433_C107 ([2]; 200 μM, insitu, 231): 0.7
SMILES: C=CC(=O)N(Cc1cccnc1)c1cc(C(F)(F)F)cc(C(F)(F)F)c1 [compound 31]
